Results as given in publication PMC4984800, “A first in man, dose-finding study of the mTORC1/mTORC2 inhibitor OSI-027 in patients with advanced solid malignancies” (British Journal of Cancer, 2016).
Where two headings read alike, the source gives them in different places.

Assays:
[1] = monkeys; preclinical; cited from earlier work
[2] = test system: p4EBP1 (Thr37/46) in PBMC; assay: Pharmacodynamics in PBMC: p4EBP1 (Thr37/46), mTORC1 effector; type: in vivo, human
Protocol: Drug-mediated inhibition of the mTORC1 and mTORC2 signalling was evaluated through assessing modulation of phospho-4EBP1 and phospho-PRAS40 in PBMC, as well as phospho-4EBP1 and phospho-S6 in tumour biopsies. Blood aliquots were collected prior to start dosing and at prespecified time points during the first course of treatment. Fresh tumour biopsies were obtained from selected patients during the dose escalation stage and from all patients in the expansion cohorts, at baseline and during cycle 1.
Drug-mediated inhibition of mTORC1 and mTORC2 signalling by OSI-027 was assessed by measuring inhibition of their effectors p4EBP1 (Thr37/46) and pPRAS40 (Thr246), respectively, in PBMC. In addition, paired tumour biopsies at screening and during first month of therapy were used to study target modulation.

[3] = First-in-human trial: pharmacokinetics in plasma and urine; type: in vivo; conditions: for AUC(0-inf) / Cmax / half-life / AUC(0-t): human, plasma, oral, median (range); for half-life: read-out: T1/2 (converted); for AUC(0-t): read-out: AUC24hr
Protocol: Blood and urine samples were collected at prespecified time points for 24 h after initial dose and at days 2–3 (S2) and after multiple doses on days 3–4 (S1) and 22–23 (S3) across dose levels. Predose samples were collected on days 8, 15 and 22. Urine samples were collected during cycle 1.
Descriptive statistics were used to summarise the safety data, including all patients who received at least one dose of OSI-027. All patients who completed the pharmacokinetic sampling were included in the PK analyses, which used descriptive statistics to summarise AUC0–∞, AUC0–t, Cmax, Clast, Tmax, Tlast, %AUC extrapolated, T1/2, clearance (Cl/F) and volume of distribution (Vz/F). Exploratory analysis were planned to correlate pharmacodynamics and pharmacokinetics. Response to treatment was evaluated according to Response Evaluation Criteria in Solid Tumors (RECIST) ([Therasse et al, 2000]).

[4] = 5 mg, Schedule 3, 5 mg, Day 1, N=3
[5] = 5 mg, Schedule 3, 5 mg, Day 22, N=3
[6] = 10 mg, Schedule 1, 10 mg, Day 1, N=6
[7] = 10 mg, Schedule 1, 10 mg, Day 3, N=6
[8] = 10 mg, Schedule 3, 10 mg, Day 1, N=3
[9] = 10 mg, Schedule 3, 10 mg, Day 22, N=3
[10] = 15 mg, Schedule 1, 15 mg, Day 1, N=4
[11] = 15 mg, Schedule 1, 15 mg, Day 3, N=4
[12] = 20 mg, Schedule 1, 20 mg, Day 1, N=4
[13] = 20 mg, Schedule 1, 20 mg, Day 3, N=4
[14] = 20 mg, Schedule 3, 20 mg, Day 1, N=6
[15] = 20 mg, Schedule 3, 20 mg, Day 22, N=5
[16] = 25 mg, Schedule 3, 25 mg, Day 1, N=3
[17] = 25 mg, Schedule 3, 25 mg, Day 22, N=3
[18] = 30 mg, Schedule 1, 30 mg, Day 1, N=3
[19] = 30 mg, Schedule 1, 30 mg, Day 3, N=3
[20] = 35 mg, Schedule 3, 35 mg, Day 1, N=4

Structure (SMILES): COc1cccc2cc(-c3nc([C@H]4CC[C@H](C(=O)O)CC4)n4ncnc(N)c34)[nH]c12 [OSI-027]
- maximum tolerated dose (MTD) in toxicology studies [1]: 2.5 mg kg^−1 per day
- inhibition of p4EBP1 in PBMC ([2]; 4 h after dosing, doses over 30 mg, almost universal): Over 50%
- inhibition of p4EBP1 in PBMC ([2]; S1, 90 mg, during the 3 days on treatment): Over 50%
- target inhibition (p4EBP1) in PBMC ([2]; S1, 160 mg, during the 4-days off treatment, most patients): Over 50%
- accumulation ([3]; after once daily / continuous dosing): minimal accumulation
- AUC(0-inf) [3, 4]: 2140 ng·h/mL
- Cmax [3, 4]: 236 ng/mL
- half-life [3, 4]: 7.89 h
- Cmax [3, 5]: 266 ng/mL
- AUC(0-t) [3, 5]: 2040 ng·h/mL
- half-life [3, 5]: 6.85 h
- AUC(0-inf) [3, 6]: 5130 ng·h/mL
- Cmax [3, 6]: 646 ng/mL
- half-life [3, 6]: 5.98 h
- Cmax [3, 7]: 602 ng/mL
- AUC(0-t) [3, 7]: 4860 ng·h/mL
- half-life [3, 7]: 7.74 h
- AUC(0-inf) ([3]; 10 mg, Schedule 2, 10 mg, N=4): 5530 ng·h/mL
- Cmax ([3]; 10 mg, Schedule 2, 10 mg, N=4): 705 ng/mL
- half-life ([3]; 10 mg, Schedule 2, 10 mg, N=4): 12.3 h
- AUC(0-inf) [3, 8]: 4300 ng·h/mL
- Cmax [3, 8]: 547 ng/mL
- half-life [3, 8]: 7.24 h
- Cmax [3, 9]: 457 ng/mL
- AUC(0-t) [3, 9]: 3720 ng·h/mL
- half-life [3, 9]: 6.54 h
- AUC(0-inf) [3, 10]: 8460 ng·h/mL
- Cmax [3, 10]: 1170 ng/mL
- half-life [3, 10]: 7.12 h
- Cmax [3, 11]: 1270 ng/mL
- AUC(0-t) [3, 11]: 9210 ng·h/mL
- half-life [3, 11]: 7.69 h
- AUC(0-inf) ([3]; 15 mg, Schedule 2, 15 mg, N=7): 25900 ng·h/mL
- Cmax ([3]; 15 mg, Schedule 2, 15 mg, N=7): 894 ng/mL
- half-life ([3]; 15 mg, Schedule 2, 15 mg, N=7): 19.3 h
- AUC(0-inf) [3, 12]: 5780 ng·h/mL
- Cmax [3, 12]: 804 ng/mL
- half-life [3, 12]: 5.09 h
- Cmax [3, 13]: 1350 ng/mL
- AUC(0-t) [3, 13]: 5850 ng·h/mL
- half-life [3, 13]: 5.97 h
- AUC(0-inf) ([3]; 20 mg, Schedule 2, 20 mg, N=3): 9840 ng·h/mL
- Cmax ([3]; 20 mg, Schedule 2, 20 mg, N=3): 1240 ng/mL
- half-life ([3]; 20 mg, Schedule 2, 20 mg, N=3): 7.65 h
- AUC(0-inf) [3, 14]: 9460 ng·h/mL
- Cmax [3, 14]: 1300 ng/mL
- half-life [3, 14]: 7.03 h
- Cmax [3, 15]: 1540 ng/mL
- AUC(0-t) [3, 15]: 13700 ng·h/mL
- half-life [3, 15]: 9.67 h
- AUC(0-inf) [3, 16]: 25100 ng·h/mL
- Cmax [3, 16]: 1640 ng/mL
- half-life [3, 16]: 11.1 h
- Cmax [3, 17]: 1790 ng/mL
- AUC(0-t) [3, 17]: 15200 ng·h/mL
- half-life [3, 17]: 15 h
- AUC(0-inf) [3, 18]: 45100 ng·h/mL
- Cmax [3, 18]: 3620 ng/mL
- half-life [3, 18]: 11.3 h
- Cmax [3, 19]: 2120 ng/mL
- AUC(0-t) [3, 19]: 37800 ng·h/mL
- half-life [3, 19]: 10 h
- AUC(0-inf) [3, 20]: 20200 ng·h/mL
- Cmax [3, 20]: 1590 ng/mL
